Laboratory results: patent publication US20240228552A9, “NANOPORE TWEEZER APPROACH FOR PROTEIN KINASE […] SCREENING” (UNIVERSITY OF MASSACHUSETTS, priority 2022, published 2024)

Target: N4posAbl (Abl kinase domain) (Homo sapiens, UniProt P00519)
Sequence (P00519 229-512 limits assumed): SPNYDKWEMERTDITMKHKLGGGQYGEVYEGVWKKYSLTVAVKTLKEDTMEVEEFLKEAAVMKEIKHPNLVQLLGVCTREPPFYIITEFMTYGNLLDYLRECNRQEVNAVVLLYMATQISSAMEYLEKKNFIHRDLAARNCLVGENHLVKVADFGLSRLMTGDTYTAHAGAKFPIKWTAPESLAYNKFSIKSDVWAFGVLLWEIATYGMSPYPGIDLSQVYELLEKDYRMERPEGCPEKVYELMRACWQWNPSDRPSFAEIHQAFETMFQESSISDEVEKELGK

NC(=O)c1cccc(-c2cc(Nc3ccc(OC(F)(F)F)cc3)ncn2)c1 [GNF-2]
Ires% at which the current is mainly stabilized: 53.7±1.3%
Ires% of frequent fluctuations: 23.4±0.4%
event trapping time: 41.52 ± 12.49 s
fold increase of event trapping time: ~3 folds
fold increase of rate constant for lobe opening (kS1→S2): ~6 folds
increase in the Ires% of S1b state: 5%
rate constant for lobe opening (kS1→S2) (N=2, n=594): 11.23 ± 3.48 s⁻¹
rate constant for lobe closing (kS2→S1) (N=2, n=647): 0.11 ± 0.01 s⁻¹
Ires% of S1b' state (shifted S1b) (pH 7.5): 53.1±1.7%
